Structures can show the parent of a compound that is named as a salt. Where two headings read alike, the source gives them in different places.
Tested on: SULT2B1b-mediated CS production in E0771-SULT cells
Experiment: CS production inhibitory effect in E0771-SULT cells (LC/MS/MS quantification of CS)
Format: cell-based, mouse
Conditions: for activity at 1 µM / activity at 20 µM / IC50 / activity at 10 µM: Mus musculus; for activity at 1 µM: compound groups B-D; for IC50: read-out: IC50 value (CS production); for activity at 10 µM: relative to control (100%)
Method: CS in each human cancer tissue sample was quantified by a method described in NPL 2. To monitor the amounts of CS and/or oxysterol generated in E0771, 3LL, EG.7-OVA, and MC38 cells irrespective of the presence or absence of SULT2B1b expression, cells of each type were seeded in a 6-well plate at 5×10^5 cells/well, and the culture supernatant and cell pellet were collected after 24 hours. Subsequently, deuterium-labeled internal standard (IS) compounds (d7-CS [[…]] and d6-25-hydroxycholesterol) were added to fractions of the culture supernatant and cell pellet, each of which was subjected to extraction with 1 mL of extraction solvent (methanol/chloroform/water=5:2:2 [v/v/v]) to extract CS and oxysterol from the culture supernatant or cell pellet.
Each sample was vigorously mixed with a vortex for 1 minute, and then ultrasonicated for 5 minutes. Thereafter, the sample was centrifuged at 16,000×g and 4° C. for 5 minutes, and the supernatant (700 μl) was collected in a clean tube. Into this, 235 μl of chloroform and 155 μl of water were added and mixed, and the resultant was then subjected to vortexing followed by centrifugation to separate into an aqueous layer and an organic layer. Subsequently, 200 μl of the lowermost layer was dried under a nitrogen flow.
The dried sample was dissolved in 50 μl of methanol, and CS and oxysterol therein were quantified by liquid chromatography-tandem mass spectrometry (LC/MS/MS) with a triple quadrupole mass spectrometer (LCMS-8060; Shimadzu Corporation) equipped with an electrospray ionization (ESI) ion source in a multiple reaction monitoring (MRM) mode.
• Column: Inertsil ODS-4 (2.1×150 mm; particle size: 3 μm; GL Sciences Inc.) • Column temperature: 40° C. • Flow rate: 0.3 ml/min • Mobile phase: (A) water/acetonitrile (1:2, v/v) containing 5 mM ammonium acetate (B) Methanol/Isopropanol (1:19, v/v) Containing 5 mM Ammonium Acetate • Gradient curve: 0 min→22 min: (B) 0%→100%, • 22 min→27 min: (B) 100%, • 27 min→27.1 min: (B) 100%→0%, • 27.1 min→30 min: (B) 0% • Injection volume: 5 μl • Mass spectrometry mode: positive and negative ion modes • Electrospray voltage: 4 kV in positive ion mode, −3.5 kV in negative ion mode • Nebulizer gas flow rate: 3.0 L/min • Drying gas flow rate: 10.0 L/min • Desolvation temperature: 250° C. • Heat block temperature: 400° C. • Detector voltage: 2.16 kV • Used were MRM mode and 2 msec of dwell time per channel.
Absolute CS and oxysterol contents were calculated from calibration curves. MRM calibration curves were prepared with chromatographic peak areas for the analytes relative to peak areas for internal standards through three times of analysis for standard solutions.
The CS production effects of test compounds (compounds 1 to 19, 21, 23, 25, and 27 to 32) were evaluated with the mouse breast cancer cell line E0771 expressing SULT2B1b (E0771-SULT cells).
Specifically, as in the above description in experimental procedure (12), E0771-SULT cells were seeded in a 6-well plate at a proportion of 5×10^5 cells/well, and cultured in the presence or absence (control) of each test compound for 24 hours. After culturing, CS generated in E0771-SULT cells was quantified by LC/MS/MS according to the description in experimental procedure (12). The CS production capacity (% activity) of cells cultured in the presence of each test compound was evaluated from the percentage relative to the CS production level (control) (100%) in E0771-SULT cells cultured in the absence of the test compound, and the CS production inhibitory effect of the test compound was evaluated.

[1] = 24 h, read-out: CS production % activity at 20 μM, E0771-SULT cells, 24 hours, test compound 20 μM, relative to control without compound (100%)
[2] = 24 h, read-out: CS production % activity at 10 μM, E0771-SULT cells, 24 hours, test compound 10 μM (Table 1)
[3] = 24 h, read-out: CS production % activity at 10 μM, E0771-SULT cells, 24 hours, third concentration column of Table 1, head again printed 10 μM
[4] = 24 h, E0771-SULT cells, 24 hours, test compound 20 μM, relative to control without compound (100%), read-out: CS production % activity at 20 μM
[5] = 24 h, E0771-SULT cells, 24 hours, read-out: CS production % activity at 1 μM
[6] = E0771-SULT cells, 24 hours, test compound 20 μM, relative to control without compound (100%), read-out: CS production % activity at 20 μM
[7] = E0771-SULT cells, 24 hours, read-out: CS production % activity at 1 μM

Structure (SMILES): C#C[C@]1(O)CC[C@H]2[C@@H]3CC=C4C[C@@H](O)CC[C@]4(C)[C@H]3CC[C@@]21C [Compound 29, (3S,8R,9S,10R,13S,14S,17R)-17-ethynyl-10,13-dimethyl-2,3,4,7,8,9,10,11,12,13,14,15,16,17-tetradecahydro-1H-cyclopenta[a]phenanthrene-3,17-diol]
- activity at 1 µM (24 h, read-out: CS production % activity at 1 μM, E0771-SULT cells, 24 hours): 50.1%
- activity at 20 µM [1]: 45%
- IC50: 11.8 µM

Structure (SMILES): C[C@H](CCC(=O)O)[C@H]1CC[C@H]2[C@@H]3CC=C4C[C@@H](OC(=O)C(F)(F)F)CC[C@]4(C)[C@H]3CC[C@]12C [Compound 2, (R)-4-((3S,8S,9S,10R,13R,14S,17R)-10,13-dimethyl-3-(2,2,2-trifluoroacetoxy)-2,3,4,7,8,9,10,11,12,13,14,15,16,17-tetradecahydro-1H-cyclopenta[a]phenanthren-17-yl)pentanoic acid]
- activity at 10 µM [2]: 34%
- activity at 10 µM [3]: 52.5%
- activity at 20 µM [1]: 36.8%
- IC50: 6 µM

Structure (SMILES): C[C@H](CCC(=O)N1CCOCC1)[C@H]1CC[C@H]2[C@@H]3CC=C4C[C@H](n5cc(CN(C)C)nn5)CC[C@]4(C)[C@H]3CC[C@]12C [Compound 13, (R)-4-((3R,8S,9S,10R,13R,14S,17R)-3-(4-((dimethylamino)methyl)-1H-1,2,3-triazol-1-yl)-10,13-dimethyl-2,3,4,7,8,9,10,11,12,13,14,15,16,17-tetradecahydro-1H-cyclopenta[a]phenanthren-17-yl)-1-morpholinopentan-1-one]
- activity at 20 µM [1]: 65.8%

Structure (SMILES): CC1(C2CC[C@H]3[C@@H]4CC=C5C[C@@H](O)CC[C@]5(C)[C@H]4CC[C@]23C)CS1 (stereo partly drawn) [Compound 32, (3S,8S,9S,10R,13S,14S)-10,13-dimethyl-17-(2-methylthiiran-2-yl)-2,3,4,7,8,9,10,11,12,13,14,15,16,17-tetradecahydro-1H-cyclopenta[a]phenanthren-3-ol]
- activity at 20 µM [4]: 54.8%
- activity at 1 µM [5]: 49.7%
- IC50 (E0771-SULT cells): 12.8 µM

Structure (SMILES): C#CC1(OC(C)=O)CCC2C3CCC4=CC(=O)CCC4C3CCC21C (stereo not drawn) [Compound 30, 19-norethisterone-acetate, reference compound]
- activity at 20 µM [6]: 61.9%
- activity at 1 µM [7]: 80.1%
- IC50 (E0771-SULT cells): 34.3 µM

Structure (SMILES): C[C@H](CCC(=O)N1CCOCC1)[C@H]1CC[C@H]2[C@@H]3CC=C4C[C@@H](O)CC[C@]4(C)[C@H]3CC[C@]12C [Compound 11, (R)-4-((3S,8S,9S,10R,13R,14S,17R)-3-hydroxy-10,13-dimethyl-2,3,4,7,8,9,10,11,12,13,14,15,16,17-tetradecahydro-1H-cyclopenta[a]phenanthren-17-yl)-1-morpholinopentan-1-one]
- activity at 20 µM [1]: 87.4%

Structure (SMILES): COC(=O)C1CCCN1C(=O)CCC(=O)OCC(=O)C1(OC(C)=O)CCC2C3CCC4=CC(=O)CCC4(C)C3CCC21C [Compound 18, methyl (4-(2-8((8R,9S,10R,13S,14S,17R)-17-acetoxy-10,13-dimethyl-3-oxo-2,3,6,7,8,9,10,11,12,13,14,15,16,17-tetradecahydro-1H-cyclopenta[a]phenanthren-17-yl)-2-oxoethoxy)-4-oxobutanoyl)-L-prolinate]
- activity at 10 µM [2]: 60.6%
- activity at 10 µM [3]: 71.7%
- activity at 20 µM [1]: 54.8%
- IC50: 16 µM

Structure (SMILES): C#CCOCCOCCOCCOCCOCCOCCNC(=O)CC[C@@H](C)[C@H]1CC[C@H]2[C@@H]3CC=C4C[C@@H](OS(=O)(=O)O)CC[C@]4(C)[C@H]3CC[C@]12C [Compound 27, (3S,8S,9S,10R,13R,14S,17R)-10,13-dimethyl-17-((R)-23-oxa-4,7,10,13,16,19-hexaoxa-22-azaheptacos-1-yn-26-yl)-2,3,4,7,8,9,10,11,12,13,14,15,16,17-tetradecahydro-1H-cyclopenta[a]phenanthren-3-yl sulfate]
- CS production % activity at 20 μM (E0771-SULT cells, 24 hours, test compound 20 μM, relative to control without compound (100%)): 59.0%

Structure (SMILES): CC(=O)C1=CC[C@H]2[C@@H]3CC=C4CC(OC(=O)CCN5CCOCC5)CC[C@]4(C)[C@H]3CC[C@]12C (stereo partly drawn) [Compound 15, (8R,9S,10R,13S,14S)-17-acetyl-10,13-dimethyl-2,3,4,7,8,9,10,11,12,13,14,15-dodecahydro-1H-cyclopenta[a]phenanthren-3-yl3-morpholinopropanoate]
- activity at 10 µM [2]: 40.9%
- activity at 10 µM [3]: 63%
- activity at 20 µM [1]: 38.9%
- IC50: 7.8 µM

Structure (SMILES): COC(=O)CC[C@@H](C)[C@H]1CC[C@H]2[C@@H]3CC=C4C[C@@H](OC)CC[C@]4(C)[C@H]3CC[C@]12C [Compound 5, methyl (R)-4-((3S,8S,9S,10R,13R,14S,17R)-3-methoxy-10,13-dimethyl-2,3,4,7,8,9,10,11,12,13,14,15,16,17-tetradecahydro-1H-cyclopenta[a]phenanthren-17-yl)pentanoate]
- activity at 20 µM [4]: 92.3%

Structure (SMILES): C#CCOCCOCCOCCOCCNC(=O)CC[C@@H](C)[C@H]1CC[C@H]2[C@@H]3CC=C4C[C@@H](OS(=O)(=O)O)CC[C@]4(C)[C@H]3CC[C@]12C [Compound 25, (3S,8S,9S,10R,13R,14S,17R)-10,13-dimethyl-17-((R)-17-oxo-4,7,10,13-tetraoxa-16-azahenicos-1-yn-20-yl)-2,3,4,7,8,9,10,11,12,13,14,15,16,17-tetradecahydro-1H-cyclopenta[a]phenanthren-3-yl sulfate]
- activity at 20 µM [1]: 60.1%

Structure (SMILES): C#CC1(O)CCC2C3CCC4=CC(=O)CCC4C3CCC21C (stereo not drawn) [Compound 31, 19-norethindrone, reference compound]
- activity at 20 µM [6]: 77.5%
- activity at 1 µM [7]: 82.8%
- IC50 (E0771-SULT cells): 68.4 µM

Structure (SMILES): C[C@]12CCC(OC(=O)CCN3CCOCC3)CC1=CC[C@@H]1[C@@H]2CC[C@]2(C)C(=O)CC[C@@H]12 (stereo partly drawn) [Compound 28, (8R,9S,10R,13S,14S)-10,13-dimethyl-17-oxo-2,3,4,7,8,9,10,11,12,13,14,15,16,17-tetradecahydro-1H-cyclopenta[a]phenanthren-3-yl 3-morpholinopropanoate]
- activity at 20 µM [4]: 42%
- activity at 1 µM [5]: 37.8%
- IC50 (E0771-SULT cells): 6.3 µM

Structure (SMILES): C#CCOCCOCCNC(=O)CC[C@@H](C)[C@H]1CC[C@H]2[C@@H]3CC=C4C[C@@H](OS(=O)(=O)O)CC[C@]4(C)[C@H]3CC[C@]12C [Compound 23, (3S,8S,9S,10R,13R,14S,17R)-10,13-dimethyl-17-((R)-5-oxo-5-((2-(2-(prop-2-yn-1-yloxy)ethoxy)ethyl)amino)pentan-2-yl)-2,3,4,7,8,9,10,11,12,13,14,15,16,17-tetradecahydro-1H-cyclopenta[a]phenanthren-3-yl sulfate]
- activity at 20 µM [1]: 70.1%
